Here are results for 52 compounds from patent US9944603B2, “Compounds and methods for the treatment of cystic fibrosis” (Flatley Discovery Lab, LLC, priority 2013, dated 2018).

The target of the assay is T1, human F508del CFTR (Homo sapiens, UniProt P13569, DEL508-508).
T1 construct: expressed in transfected cells
Briefly: CFTR-YFP Assay, CFTR Corrector Protocol (YFP flux assay). The conditions noted are these: for Emax: normalized to the positive control, read-out: EMAX (% Efficacy, EMAX normalized to the positive control). Format: cell-based.

T1 sequence (P13569 with tags, fused parts or gaps DEL508-508): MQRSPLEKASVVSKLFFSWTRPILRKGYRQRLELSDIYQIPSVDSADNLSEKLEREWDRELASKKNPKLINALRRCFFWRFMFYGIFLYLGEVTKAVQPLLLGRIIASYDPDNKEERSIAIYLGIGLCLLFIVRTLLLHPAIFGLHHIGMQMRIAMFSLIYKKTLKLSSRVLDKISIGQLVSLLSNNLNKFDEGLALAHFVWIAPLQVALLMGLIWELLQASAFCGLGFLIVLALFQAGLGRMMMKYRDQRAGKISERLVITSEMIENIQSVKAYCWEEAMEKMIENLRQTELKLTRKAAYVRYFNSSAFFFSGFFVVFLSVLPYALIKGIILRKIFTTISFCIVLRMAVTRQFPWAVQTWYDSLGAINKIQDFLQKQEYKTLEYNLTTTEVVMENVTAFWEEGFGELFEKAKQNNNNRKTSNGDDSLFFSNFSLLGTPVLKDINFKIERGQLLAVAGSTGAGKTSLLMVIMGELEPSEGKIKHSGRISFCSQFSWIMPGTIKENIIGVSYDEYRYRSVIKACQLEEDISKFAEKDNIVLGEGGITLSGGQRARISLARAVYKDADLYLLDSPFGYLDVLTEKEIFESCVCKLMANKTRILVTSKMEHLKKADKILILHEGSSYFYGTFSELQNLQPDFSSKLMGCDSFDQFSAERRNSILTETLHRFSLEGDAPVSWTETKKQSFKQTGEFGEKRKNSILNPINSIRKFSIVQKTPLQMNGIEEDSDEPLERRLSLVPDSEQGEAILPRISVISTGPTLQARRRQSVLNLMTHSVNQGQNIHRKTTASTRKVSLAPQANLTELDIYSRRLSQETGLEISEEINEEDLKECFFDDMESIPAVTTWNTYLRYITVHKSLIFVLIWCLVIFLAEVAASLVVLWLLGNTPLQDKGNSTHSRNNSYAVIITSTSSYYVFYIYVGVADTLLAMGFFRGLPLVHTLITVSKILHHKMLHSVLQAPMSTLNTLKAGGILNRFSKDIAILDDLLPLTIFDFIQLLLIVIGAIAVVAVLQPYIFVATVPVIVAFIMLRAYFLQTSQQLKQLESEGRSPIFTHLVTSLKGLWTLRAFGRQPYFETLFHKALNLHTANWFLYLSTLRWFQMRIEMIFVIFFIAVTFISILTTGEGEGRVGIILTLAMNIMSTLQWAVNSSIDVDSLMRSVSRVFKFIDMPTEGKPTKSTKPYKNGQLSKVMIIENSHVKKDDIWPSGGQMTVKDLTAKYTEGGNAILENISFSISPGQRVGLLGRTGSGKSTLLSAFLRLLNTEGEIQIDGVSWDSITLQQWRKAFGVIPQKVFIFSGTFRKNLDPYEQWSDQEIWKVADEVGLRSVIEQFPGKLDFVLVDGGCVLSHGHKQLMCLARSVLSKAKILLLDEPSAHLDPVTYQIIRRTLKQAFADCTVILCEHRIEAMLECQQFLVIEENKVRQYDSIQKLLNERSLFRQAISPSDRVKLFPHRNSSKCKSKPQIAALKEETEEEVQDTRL

On to `CCc1ccc(S(=O)(=O)N2CCC(N(c3cc(Cl)ccn3)S(=O)(=O)c3ccccc3Cl)CC2)cc1` [Example 233], for which the EC50 was less than 10 µM and the Emax is 30 to 80%.
The like results for `O=S(=O)(c1ccc2c(c1)OC(F)(F)O2)N1CCC(n2c(-c3ccccc3F)nc3cccnc32)CC1` [Example 130] were, in that order, less than 10 µM and 30 to 80%.
Regarding `COc1ccc(S(=O)(=O)N2CCC(n3c(-c4ccccc4OC)nc4cccnc43)CC2)cc1Cl` [Example 55], the EC50 was less than 10 µM and the Emax lay in the range of 30 to 80%.
Take `CCc1ccc(S(=O)(=O)N2CCC(N(C(=O)c3ccccc3Cl)c3ccccc3)CC2)cc1` [Example 210]: the EC50 lay in the range of 10 to 20 µM and the Emax was 30 to 80%.
The corresponding values for `Cc1ccnc2c1nc(-c1ccncc1F)n2C1CCN(S(=O)(=O)c2ccc3c(c2)OC(F)(F)O3)CC1` [Example 165] are less than 10 µM and 30 to 80%.
The corresponding values for `CCc1ccc(S(=O)(=O)N2CCC(n3c(-c4ccncc4F)nc4ccc(C)nc43)CC2)cc1` [Example 113] are less than 10 µM and 30 to 80%.
The like results for `CCc1ccc(S(=O)(=O)N2CCC(N(c3ccccc3OC)S(=O)(=O)c3ccccc3Cl)CC2)cc1` [Example 239] were, in that order, less than 10 µM and 10 to 30%.
Take `CCc1ccc(S(=O)(=O)N2CCC(N(C(=S)c3ccccc3Cl)c3ccccc3)CC2)cc1` [Example 213]: the EC50 lay within 10 to 20 µM and the Emax fell in the range of 10 to 30%.
For `Cc1cc2cc(S(=O)(=O)N3CCC(n4c(-c5ccncc5F)nc5cccnc54)CC3)ccc2[nH]1` [Example 142], the EC50 is less than 10 µM and the Emax lay within 10 to 30%.
The like results for `CCc1ccc(S(=O)(=O)N2CCC(N(c3ncccn3)S(=O)(=O)c3ccccc3Cl)CC2)cc1` [Example 242] were, in that order, less than 10 µM and 10 to 30%.
For the compound `CCc1ccc(S(=O)(=O)N2CCC(N(c3cccc(C)n3)S(=O)(=O)c3c(C)cc(C)cc3C)CC2)cc1` [Example 192], the EC50 is less than 10 µM and the Emax fell in the range of 30 to 80%.
The corresponding values for `COc1ccc(S(=O)(=O)N2CCC(n3c(-c4ccccc4)nc4cccnc43)CC2)cc1C` [Example 73] are less than 10 µM and 30 to 80%.
The corresponding values for `Cc1cccc(N(C2CCN(S(=O)(=O)c3ccc4c(c3)OC(F)(F)O4)CC2)S(=O)(=O)c2ccccc2Cl)n1` [Example 191] are 10 to 20 µM and 10 to 30%.
The like results for `COc1ccc(S(=O)(=O)N2CCC(N(C(=O)Nc3ccccc3Cl)c3ccccn3)CC2)cc1Cl` [Example 178] were, in that order, less than 10 µM and 10 to 30%.
As to `O=S(=O)(c1ccc2cc[nH]c2c1)N1CCC(n2c(-c3ccncc3F)nc3cccnc32)CC1` [Example 162], the EC50 is less than 10 µM and the Emax fell in the range of 10 to 30%.
The like results for `CCc1ccc(S(=O)(=O)N2CCC(n3c(-c4ccncc4Cl)nc4cc(O)ccc43)CC2)cc1` [Example 168] were, in that order, less than 10 µM and 30 to 80%.
The corresponding values for `CCc1ccc(S(=O)(=O)N2CCC(N(c3ccc(Cl)cn3)S(=O)(=O)c3ccccc3Cl)CC2)cc1` [Example 230] are less than 10 µM and 30 to 80%.
The like results for `O=S(=O)(c1ccc2c(c1)OC(F)(F)O2)N1CCC(n2c(-c3ccccc3OC(F)F)nc3cccnc32)CC1` [Example 126] were, in that order, less than 10 µM and 30 to 80%.
Consider `O=S(=O)(c1ccc2c(c1)OC(F)(F)O2)N1CCC(n2c(-c3ccncc3Cl)nc3ncccc32)CC1` [Example 40], for which the EC50 is less than 10 µM and the Emax lay in the range of 30 to 80%.
With `CCc1ccc(S(=O)(=O)N2CCC(N(c3ccccn3)S(=O)(=O)c3ccccc3)CC2)cc1` [Example 181], the EC50 is less than 10 µM and the Emax fell in the range of 30 to 80%.
Regarding `CCc1ccc(S(=O)(=O)N2CCC(n3c(-c4ccccc4Cl)nc4cc(O)ccc43)CC2)cc1` [Example 167], the EC50 is greater than 20 µM and the Emax lay within 10 to 30%.
The like results for `CCc1ccc(S(=O)(=O)N2CCC(N(C(=O)c3ccncc3Cl)c3ccccn3)CC2)cc1` [Example 199] were, in that order, less than 10 µM and 10 to 30%.
The like results for `Cc1cccc(N(C(=O)c2ccccc2Cl)C2CCN(S(=O)(=O)c3ccc4c(c3)OCO4)CC2)n1` [Example 202] were, in that order, less than 10 µM and 10 to 30%.
In the case of `COc1ccc2nc(-c3ccncc3F)n(C3CCN(S(=O)(=O)c4ccc5c(c4)OC(F)(F)O5)CC3)c2n1` [Example 127], the EC50 was less than 10 µM and the Emax fell in the range of 30 to 80%.
For `COc1ccc(N(C2CCN(S(=O)(=O)c3ccc4nc(C)oc4c3)CC2)S(=O)(=O)c2ccccc2Cl)nc1` [Example 228], the EC50 was 10 to 20 µM and the Emax lay within 10 to 30%.
The corresponding values for `CCc1ccc(S(=O)(=O)N2CCC(N(c3ccc(F)cc3)S(=O)(=O)c3ccccc3Cl)CC2)cc1` [Example 241] are less than 10 µM and 10 to 30%.
The like results for `Cc1cc(C)c(S(=O)(=O)N(c2ccccn2)C2CCN(S(=O)(=O)c3ccc4c(c3)OC(F)(F)O4)CC2)c(C)c1` [Example 185] were, in that order, less than 10 µM and 30 to 80%.
The like results for `O=S(=O)(c1ccc2c(c1)OCO2)N1CCC(n2c(-c3cccnc3Cl)nc3cccnc32)CC1` [Example 92] were, in that order, less than 10 µM and 30 to 80%.
`CCc1ccc(S(=O)(=O)N2CCC(N(C(=O)c3ccccc3Cl)c3cccc(C)n3)CC2)cc1` [Example 201]: the EC50 was less than 10 µM and the Emax lay in the range of 30 to 80%.
The like results for `Cc1ccc2nc(-c3cccnc3Cl)n(C3CCN(S(=O)(=O)c4ccc5c(c4)OCO5)CC3)c2n1` [Example 101] were, in that order, less than 10 µM and 10 to 30%.
The like results for `O=S(=O)(c1ccc2cc[nH]c2c1)N1CCC(n2c(-c3ccncc3Cl)nc3cccnc32)CC1` [Example 161] were, in that order, 10 to 20 µM and 10 to 30%.
The like results for `Cc1nc2ccc(S(=O)(=O)N3CCC(n4c(-c5ccncc5F)nc5cccnc54)CC3)cc2o1` [Example 133] were, in that order, less than 10 µM and greater than 80%.
Consider `COc1ccc(S(=O)(=O)N2CCC(n3c(-c4ccccc4OC(F)(F)F)nc4cccnc43)CC2)cc1Cl` [Example 76], for which the EC50 is less than 10 µM and the Emax is 30 to 80%.
The like results for `CCc1ccc(S(=O)(=O)N2CCC(N(C(=O)Nc3ccccc3Cl)c3cccc(C)n3)CC2)cc1` [Example 175, 3-(2-chlorophenyl)-1-(1-((4-ethylphenyl)sulfonyl)piperidin-4-yl)-1-(6-methylpyridin-2-yl)urea] were, in that order, less than 10 µM and 10 to 30%.
The like results for `Cc1ccc(S(=O)(=O)N2CCC(n3c(-c4ccccc4)nc4ccc(C)nc43)CC2)cc1` [Example 61] were, in that order, less than 10 µM and 30 to 80%.
The corresponding values for `Cc1noc2ccc(S(=O)(=O)N3CCC(n4c(-c5ccncc5F)nc5cccnc54)CC3)cc12` [Example 139] are greater than 20 µM and 10 to 30%.
As for `Cc1ccc2nc(-c3ccccc3)n(C3CCN(S(=O)(=O)c4ccc5c(c4)OC(F)(F)O5)CC3)c2n1` [Example 97], the EC50 was less than 10 µM and the Emax was 30 to 80%.
For `O=S(=O)(c1ccc2c(c1)OC(F)(F)O2)N1CCC(n2c(-c3ccccc3)cc3ccccc32)CC1` [Example 104], the EC50 was less than 10 µM and the Emax fell in the range of 30 to 80%.
The corresponding values for `O=C(c1ccccc1Cl)N(c1ccccn1)C1CCN(S(=O)(=O)c2ccc3c(c2)OCO3)CC1` [Example 197] are less than 10 µM and 10 to 30%.
For the compound `CCc1ccc(S(=O)(=O)N2CCC(N(c3ccc(C(F)(F)F)cn3)S(=O)(=O)c3ccccc3Cl)CC2)cc1` [Example 243], the EC50 fell in the range of 10 to 20 µM and the Emax was 10 to 30%.
The corresponding values for `CCc1ccc(S(=O)(=O)N2CCC(N(c3ccc(C)cc3)S(=O)(=O)c3ccccc3Cl)CC2)cc1` [Example 237] are less than 10 µM and 10 to 30%.
The like results for `CCc1ccc(S(=O)(=O)N2CCC(N(c3cc(C)ccn3)S(=O)(=O)c3ccccc3Cl)CC2)cc1` [Example 240] were, in that order, less than 10 µM and 10 to 30%.
The like results for `CCc1ccc(S(=O)(=O)N2CCC(n3c(-c4ccccc4Cl)nc4cc(OC)ccc43)CC2)cc1` [Example 155] were, in that order, less than 10 µM and 30 to 80%.
As for `CCc1ccc(S(=O)(=O)N2CCC(n3c(-c4ccncn4)nc4cccnc43)CC2)cc1` [Example 131], the EC50 is less than 10 µM and the Emax fell in the range of 10 to 30%.
As for `CCc1ccc(S(=O)(=O)N2CCC(N(C(=O)c3ccccc3Cl)c3ccc4c(c3)OC(F)(F)O4)CC2)cc1` [Example 209], the EC50 is less than 10 µM and the Emax was in the range of 30 to 80%.
The corresponding values for `COc1ccc2c(c1)nc(-c1ccncc1Cl)n2C1CCN(S(=O)(=O)c2ccc3nc(C)oc3c2)CC1` [Example 160] are less than 10 µM and 30 to 80%.
The like results for `CCc1ccc(S(=O)(=O)N2CCC(N(C(=O)c3ccccc3Cl)c3cccc(Cl)c3)CC2)cc1` [Example 217] were, in that order, less than 10 µM and 10 to 30%.
`COc1ccc(S(=O)(=O)N2CCC(n3c(-c4ccccc4)cc4ccccc43)CC2)cc1Cl` [Example 103]: the EC50 was less than 10 µM and the Emax lay in the range of 10 to 30%.
On to `CCc1ccc(S(=O)(=O)N2CCC(N(c3ccccn3)S(=O)(=O)c3ccccc3C)CC2)cc1` [Example 225], for which the half-maximal effective concentration (EC50) was less than 10 µM and the maximum response (Emax) fell in the range of 10 to 30%.
On to `COc1cccc(S(=O)(=O)N2CCC(n3c(-c4ccccc4)nc4cccnc43)CC2)c1` [Example 68], for which the concentration for a half-maximal effect (EC50) was less than 10 µM and the Emax was 10 to 30%.
Regarding `COc1ccc(S(=O)(=O)N2CCC(N(c3ccccn3)S(=O)(=O)c3c(C)cc(C)cc3C)CC2)cc1Cl` [Example 184], the EC50 is less than 10 µM and the Emax was 10 to 30%.
Take `Cc1ccc(N(C2CCN(S(=O)(=O)c3ccc4nc(C)oc4c3)CC2)S(=O)(=O)c2ccccc2Cl)nc1` [Example 223]: the 50% effective concentration (EC50) fell in the range of 10 to 20 µM and the Emax is 10 to 30%.
